According to patent US20130102593A1, “PYRROLIDINE COMPOUNDS WHICH INHIBIT BETA-SECRETASE ACTIVITY AND METHODS OF USE THEREOF” (priority 2008, published 2013):
Like-named read-outs stand apart in the source and are kept apart here.

Experiments:
[1] = tested on: Aβ production; assay: Cellular Aβ IC50 determination (memapsin 2 activity in a cellular assay of Aβ production); assay type: cell-based, Chinese hamster; conditions: Cricetulus griseus, read-out: M2 IC50
Procedure: The potency of compounds against memapsin 2 activity was determined in a cellular assay of Aβ production. […] Chinese hamster ovary cells that over-express human APP695 with the London and Swedish mutations were seeded in multi-well plates at 10% confluency. Compounds are dissolved in DMSO to concentrations near 1 mM, and diluted into culture media to a final concentration near 4 μM (final 0.4% DMSO). Compounds were diluted serially and applied to cells in multi-well plates 48 h after seeding. Incubation was continued in 5% CO2 at 37° C. for 24 h. Aliquots were removed and assayed for […] content using a sandwich ELISA (BioSource International). Amount of Aβ40 over the range of concentration of compounds, relative to control incubations, were fit to a 4-parameter IC50 model.

[2] = Determination of hepatic intrinsic clearance in liver microsomes; assay type: in vitro ADME; conditions: human liver microsomes, value in text
Procedure: To 500 μl of 200 mM Na^+K^+ phoshapte buffer (pH 7.4), 100 μl of 1 mM EDTA solution was added followed by 100 μl of 2 mg protein/ml human liver microsomes. A 10 μl aliquot of test compound (20 mM stock in 50% acetonitrile) was diluted further with 40 μl of H2O (total assay volume 750 μl. Assay mixture is incubated for 5 minutes at 37° C. The assay was initiated by addition of 250 μl of 4 mM NADPH solution. Incubation was continued at 37° C. Separate reaction mixtures were prepared for 0, 5, 10, 20, and 30 min durations. Individual reactions were halted by addition of 150 μl of 100% acetonitrile. Internal standard (10 μl of 100 ng/ml diazepam solution) was added. Concentration of the test compound in each separate reaction was measured using LC/MS/MS and a standard curve for the test compound according to standard procedures.
The hepatic intrinsic clearance in liver microsome was determined by the following procedure described by Davies and Morris (Davies, B. and Morris, T. (19930) Physiological parameters in laboratory animals and humans. Pharm Res. 10:1093-1095) detailing the relationship of in vitro clearance to physiological parameters in animals and human subjects. […]
where T is time (in minutes), from the relationship of relative amount vs. time. Alternatively, k1 was determined from a transform of the equation, where […]

[3] = Chinese hamster ovary cells over-expressing human APP695 with London and Swedish mutations, 24 h, Aβ40 sandwich ELISA

| SMILES | IC50 [1, 3] | also measured |
| --- | --- | --- |
| Cc1coc([C@H]2CCCN2C(=O)c2cccc(C(=O)N[C@@H](Cc3ccccc3)[C@H](O)[C@H]3C[C@@H](OCc4ccccc4)CN3)c2)n1 [1-18, N-((1R,2S)-1-((2R,4R)-4-(benzyloxy)pyrrolidin-2-yl)-1-hydroxy-3-phenylpropan-2-yl)-3-((R)-2-(4-methyloxazol-2-yl)pyrrolidine-1-carbonyl)benzamide] | < 0.5 µM | IC50 ([1]; CHO cells over-expressing human APP695, Aβ40 ELISA): 0.291 µM; hepatic intrinsic clearance in liver microsomes (HLM CL) ([2]; listed as N-(1R,2S)-1-((2R,4R)-4-(benzyloxy)pyrrolidin-2-yl)-1-hydroxy-3-phenylpropan-2-y): approximately 337 mL/min/kg; hepatic intrinsic clearance in liver microsomes (HLM CL) ([2]; listed as N-((1R,2S)-1-(2R,4R)-4-(benzyloxy)pyrrolidin-2-yl)-1-hydroxy-3-phenylpropan-2-yl): 337 mL/min/kg |
| Cc1csc([C@H]2CCCN2C(=O)c2cncc(C(=O)N[C@@H](Cc3ccccc3)[C@H](O)CNCc3cc(Cl)nc(N(C)C)c3)c2)n1 [2-1, N-((2S,3R)-4-((2-chloro-6-(dimethylamino)pyridin-4-yl)methylamino)-3-hydroxy-1-phenylbutan-2-yl)-5-((R)-2-(4-methylthiazol-2-yl)pyrrolidine-1-carbonyl)nicotinamide, reference compound] | < 0.5 µM |  |
| Cc1csc([C@H]2CCCN2C(=O)c2cc(C(=O)N[C@@H](Cc3ccccc3)[C@H](O)CNCc3cncc(C(C)C)c3)cc(-c3ccco3)c2)n1 [2-2, 3-(furan-2-yl)-N-((2S,3R)-3-hydroxy-4-((5-isopropylpyridin-3-yl)methylamino)-1-phenylbutan-2-yl)-5-((R)-2-(4-methylthiazol-2-yl)pyrrolidine-1-carbonyl)benzamide, reference compound] | < 0.5 µM |  |
| Cc1cc(C(=O)N[C@@H](Cc2ccccc2)[C@H](O)CNCc2cncc(C(C)(C)C)c2)cc(C(=O)N2CCC[C@@H]2c2nc(C)co2)c1 [2-3, N-((2S,3R)-4-((5-tert-butylpyridin-3-yl)methylamino)-3-hydroxy-1-phenylbutan-2-yl)-3-methyl-5-((R)-2-(4-methyloxazol-2-yl)pyrrolidine-1-carbonyl)benzamide, reference compound] | < 0.5 µM |  |
| Cc1coc([C@H]2CCCN2C(=O)c2cccc(C(=O)N[C@@H](Cc3ccccc3)[C@H](O)CNCc3cncc(C(C)(C)C)c3)c2)n1 [2-4, N-((2S,3R)-4-((5-tert-butylpyridin-3-yl)methylamino)-3-hydroxy-1-phenylbutan-2-yl)-3-((R)-2-(4-methyloxazol-2-yl)pyrrolidine-1-carbonyl)benzamide, reference compound] | < 0.5 µM |  |
| CCn1cc(CNC[C@@H](O)[C@H](Cc2ccccc2)NC(=O)c2cc(C)cc(C(=O)N3CCC[C@@H]3c3nc(C)co3)c2)cn1 [2-5, N-((2S,3R)-4-((1-ethyl-1H-pyrazol-4-yl)methylamino)-3-hydroxy-1-phenylbutan-2-yl)-3-methyl-5-((R)-2-(4-methyloxazol-2-yl)pyrrolidine-1-carbonyl)benzamide, reference compound] | < 0.5 µM |  |
| C=C(C)c1cccc(CNC[C@@H](O)[C@H](Cc2ccccc2)NC(=O)c2cccc(C(=O)N3CCC[C@@H]3c3nc(C)co3)c2)c1 [2-6, N-((2S,3R)-3-hydroxy-1-phenyl-4-(3-(prop-1-en-2-yl)benzylamino)butan-2-yl)-3-((R)-2-(4-methyloxazol-2-yl)pyrrolidine-1-carbonyl)benzamide, reference compound] | < 0.5 µM |  |
| Cc1coc([C@H]2CCCN2C(=O)c2cc(CF)cc(C(=O)N[C@@H](Cc3ccccc3)[C@H](O)CNCc3cccc(C(C)(C)C)c3)c2)n1 [2-7, N-((2S,3R)-4-(3-tert-butylbenzylamino)-3-hydroxy-1-phenylbutan-2-yl)-3-(fluoromethyl)-5-((R)-2-(4-methyloxazol-2-yl)pyrrolidine-1-carbonyl)benzamide, reference compound] | < 0.5 µM |  |
| Cc1cc(C(=O)N[C@@H](Cc2ccccc2)[C@H](O)CNCc2cncc(C(C)C)c2)cc(C(=O)N2CCC[C@@H]2c2nc(C)cs2)c1 [2-8, N-((2S,3R)-3-hydroxy-4-((5-isopropylpyridin-3-yl)methylamino)-1-phenylbutan-2-yl)-3-methyl-5-((R)-2-(4-methylthiazol-2-yl)pyrrolidine-1-carbonyl)benzamide, reference compound] | < 0.5 µM |  |
| Cc1csc(CN(C(=O)c2cccc(C(=O)N[C@@H](Cc3ccccc3)[C@H](O)CNCc3cccc(C(F)(F)F)c3)c2)C2CC2)n1 [2-9, N1-cyclopropyl-N3-((2S,3R)-3-hydroxy-1-phenyl-4-(3-(trifluoromethyl)benzylamino)butan-2-yl)-N1-((4-methylthiazol-2-yl)methyl)isophthalamide, reference compound] | < 0.5 µM |  |
| Cc1csc([C@H]2CCCN2C(=O)c2cccc(C(=O)N[C@@H](Cc3ccccc3)[C@H](O)CNCc3cccc(C(C)(C)C)c3)c2)n1 [2-10, N-((2S,3R)-4-(3-tert-butylbenzylamino)-3-hydroxy-1-phenylbutan-2-yl)-3-((R)-2-(4-methylthiazol-2-yl)pyrrolidine-1-carbonyl)benzamide, reference compound] | < 0.5 µM |  |
